Assay results taken from patent publication US8071600B2, “Derivatives of 4-piperazin-1-yl-4-benzo[B]thiophene suitable for the treatment of CNS disorders” (Otsuka Pharmaceutical Co., Ltd., priority 2005, dated 2011).

What was measured:
[1] = biological target: T1, Dopamine D2 receptor (Rattus norvegicus, UniProt P61169); assay: Dopamine D2 receptor binding assay ([3H]-raclopride); conditions: Dopamine D2 receptor binding test, rat corpus striatum membrane, Ki calculated from IC50 by Cheng-Prussoff formula
T1 construct: from tissue; host or cells: Wistar rat brain, corpus striatum membranes
Procedure: 1) Dopamine D2 Receptor Binding Assay
The assay was performed according to the method by Kohler et al. (Kohler C, Hall H, Ogren S O and Gawell L, Specific in vitro and in vivo binding of 3H-raclopride. A potent substituted benzamide drug with high affinity for dopamine D-2 receptors in the rat brain. Biochem. Pharmacol., 1985; 34: 2251-2259).
Wistar male rats were decapitated, the brain was retrieved immediately and corpus striatum was taken out. It was homogenized in 50 mM tris(hydroxymethyl)aminomethane (Tris)-hydrochloric acid buffer (pH 7.4) of a volume 50 times of the weight of the tissue using a homogenizer with a high-speed rotating blade, and centrifuged at 4° C., 48,000×g for 10 minutes. The obtained precipitate was suspended again in the above-described buffer of a volume 50 times of the weight of the tissue and after incubated at 37° C. for 10 minutes, centrifuged in the above-described condition. The obtained precipitate was suspended in 50 mM (Tris)-hydrochloric acid buffer (containing 120 mM NaCl, 5 mM KCl, 2 mM CaCl2, 1 mM MgCl2, pH 7.4) of a volume 25 times of the weight of the tissue and preserved by freezing at −85° C. till it was used for binding assay as a membrane specimen.
The binding assay was performed using 40 μl of the membrane specimen, 20 μl of [^3H]-raclopride (final concentration 1 to 2 nM), 20 μl of a test drug and 50 mM Tris-hydrochloric acid buffer (containing 120 mM NaCl, 5 mM KCl, 2 mM CaCl2, 1 mM MgCl2, pH 7.4) so that the total amount was 200 μl (final dimethylsulfoxide concentration 1%). The reaction was performed at room temperature for 1 hour and terminated by conducting suction filtration with a cell harvester on a glass fiber filter plate. The filter plate made of glass fiber was washed with 50 mM Tris-hydrochloric acid buffer (pH 7.4), and after dried, a microplate liquid scintillation cocktail was added and the radioactivity was measured with a microplate scintillation counter. Radioactivity in the presence of 10 μM (+)-butaclamol hydrochloride was assumed as nonspecific binding.
(§1) IC50 value was calculated from concentration-dependent reaction using a non-linear analysis program. Ki value was calculated from IC50 value using Cheng-Prussoff formula.

[2] = system: serotonin (5-HT) uptake by rat brain synaptosome; assay: Serotonin (5-HT) uptake inhibitory activity by rat brain synaptosome; type: biochemical; conditions: test compound 300 nM, tritium labeled 5-HT 8 nM, 10 minutes uptake at 37° C.
Procedure: Measurement of serotonin (5-HT) uptake inhibitory activity of a test compound by rat brain synaptosome
Wistar male rats were decapitated, the brain was retrieved and frontal cortex was dissected out, and it was homogenized in 0.32 M sucrose solution of a weight 20 times of the weight of the tissue using a Potter type homogenizer. The homogenate was centrifuged at 4° C., 1,000×g for 10 minutes, the obtained supernatant was further centrifuged at 4° C., 20,000×g for 20 minutes, and the pellet was suspended in an incubation buffer (20 mM Hepes buffer (pH 7.4) containing 10 mM glucose, 145 mM sodium chloride, 4.5 mM potassium chloride, 1.2 mM magnesium chloride, 1.5 mM calcium chloride), which was used as crude synaptosome fraction.
5-HT uptake reaction was performed in a volume of 200 μl using a 96-well round bottom plate and pargyline (final concentration 10 μM) and sodium ascorbate (final concentration 0.2 mg/ml) were contained in the incubation buffer upon reaction and used.
Incubation buffer (total counting), non-labeled 5-HT (final concentration 10 μM, non-specific counting) and the diluted test compound (final concentration 300 nM) were added to each well. One-tenth quantity of the final volume of the synaptosome fraction was added and after preincubated at 37° C. for 10 minutes, tritium labeled 5-HT solution (final concentration 8 nM) was added and uptake reaction was started at 37° C. The uptake time was 10 minutes and the reaction was terminated by vacuum filtration through a 96-well fiber glass filter paper plate, and after the filter paper was washed with cold normal saline, it was dried enough and Microscint0 (Perkin-Elmer) was added to the filter and remaining radioactivity on the filter was measured.
Serotonin uptake inhibitory activity (%) was calculated from the radioactivity of total counting as 100%, of non-specific counting as 0%, and of counting obtained with test compound. % of inhibition of 5-HT(%)=100−[(Count obtained with test compound−Nonspecific count (0% Uptake))/(Total count (100% Uptake)−Nonspecific count (0% Uptake))]×100 The results are shown in the next Table 314.

[3] = biological target: T2, Serotonin 5-HT2A receptor (Rattus norvegicus, UniProt P14842); assay: Serotonin 5-HT2A receptor binding assay ([3H]-Ketanserin); conditions: Serotonin 5-HT2A receptor binding test, rat frontal cortex membrane, Ki calculated from IC50 by Cheng-Prussoff formula
T2 construct: from tissue; host or cells: Wistar rat brain, frontal cortex membranes
Procedure: 2) Serotonin 5-HT2A Receptor Binding Assay
The assay was performed according to the method by Leysen J E et al. (Leysen J E, Niemegeers C J E, Van Nueten J M and Laduron P M. [3H] Ketanserin (R 41 468), a selective 3H-ligand for serotonin 2 receptor binding sites. Mol. Pharmacol., 1982, 21: 301-314).
Wistar male rats were decapitated, the brain was retrieved immediately and frontal cortex was taken out. It was homogenized in 0.25 M sucrose of a volume 10 times of the weight of the tissue using a Teflon glass homogenizer, and centrifuged at 4° C., 1,000×g for 10 minutes. The obtained supernatant was transferred to another centrifuge tube and suspended in 0.25 M sucrose of a volume 5 times of the weight of the tissue and the precipitate was centrifuged in the above-described condition. The obtained supernatant was combined with the supernatant obtained above and adjusted to a volume 40 times of the weight of the tissue with 50 mM Tris-hydrochloric acid buffer (pH 7.4), and centrifuged at 4° C., 35,000×g for 10 minutes. The obtained precipitate was suspended again in the above-described buffer of a volume 40 times of the weight of the tissue and centrifuged in the above-described condition. The obtained precipitate was suspended in the above-described buffer of a volume 20 times of the weight of the tissue and preserved by freezing at −85° C. till it was used for binding assay as a membrane specimen.
The binding assay was performed using 40 μl of the membrane specimen, 20 μl of [^3H]-Ketanserin (final concentration 1 to 3 nM), 20 μl of a test drug and 50 mM Tris-hydrochloric acid buffer (pH 7.4) so that the total amount was 200 μl (final dimethylsulfoxide concentration 1%). The reaction was performed at 37° C. for 20 minutes and terminated by conducting suction filtration with a cell harvester on a glass fiber filter plate.
The filter plate made of glass fiber was washed with 50 mM Tris-hydrochloric acid buffer (pH 7.4), and after dried, a microplate liquid scintillation cocktail was added and the radioactivity was measured with a microplate scintillation counter. Radioactivity in the presence of 10 μM spiperone was assumed as nonspecific binding.
as §1

[4] = biological target: Human recombinant dopamine D2 receptor (Homo sapiens, UniProt P14416); conditions: forskolin-stimulated D2 receptor expressing CHO cells; well without test compound = 100%
Procedure: Partial agonistic activity on dopamine D2 receptor using D2 receptor expression cells
Partial agonistic activity on dopamine D2 receptor was evaluated by quantitatively determining cyclic AMP production inhibitory effect of a test compound in dopamine D2 receptor expression cells in which adenosine 3′,5′-cyclic monophosphate (cyclic AMP) production was induced by forskolin stimulation.
Human recombinant dopamine D2 receptor expressing Chinese hamster ovary/DHFR(−) cells were cultured in a culture medium (Iscove's Modified Dulbecco's Medium (IMDM culture medium), 10% fetal bovine serum, 50 I.U./ml penicillin, 50 μg/ml streptomycin, 200 μg/ml geneticin, 0.1 mM sodium hypoxanthine, 16 μM thymidine) at 37° C. and 5% carbon dioxide condition. Cells were seeded at 10^4 cells/well on a 96-well microtiter plate coated with poly-L-lysine and grown under the same condition for 2 days. Each well was washed with 100 μl of a culture medium (IMDM culture medium, 0.1 mM sodium hypoxanthine, 16 μM thymidine).

T2 sequence (P14842 whole entry): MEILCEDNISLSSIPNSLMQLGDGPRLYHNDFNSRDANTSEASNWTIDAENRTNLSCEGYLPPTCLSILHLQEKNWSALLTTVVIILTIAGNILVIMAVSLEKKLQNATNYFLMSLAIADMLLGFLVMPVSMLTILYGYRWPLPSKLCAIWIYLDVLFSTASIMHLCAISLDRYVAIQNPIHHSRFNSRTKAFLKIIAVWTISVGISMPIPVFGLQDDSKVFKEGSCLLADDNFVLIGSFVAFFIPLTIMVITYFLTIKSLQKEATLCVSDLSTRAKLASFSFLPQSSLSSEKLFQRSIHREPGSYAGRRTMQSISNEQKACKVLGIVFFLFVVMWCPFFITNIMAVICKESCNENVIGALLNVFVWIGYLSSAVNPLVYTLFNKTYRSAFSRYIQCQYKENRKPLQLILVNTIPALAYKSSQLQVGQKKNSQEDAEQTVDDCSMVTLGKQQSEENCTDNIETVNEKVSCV
T1 sequence (P61169 whole entry): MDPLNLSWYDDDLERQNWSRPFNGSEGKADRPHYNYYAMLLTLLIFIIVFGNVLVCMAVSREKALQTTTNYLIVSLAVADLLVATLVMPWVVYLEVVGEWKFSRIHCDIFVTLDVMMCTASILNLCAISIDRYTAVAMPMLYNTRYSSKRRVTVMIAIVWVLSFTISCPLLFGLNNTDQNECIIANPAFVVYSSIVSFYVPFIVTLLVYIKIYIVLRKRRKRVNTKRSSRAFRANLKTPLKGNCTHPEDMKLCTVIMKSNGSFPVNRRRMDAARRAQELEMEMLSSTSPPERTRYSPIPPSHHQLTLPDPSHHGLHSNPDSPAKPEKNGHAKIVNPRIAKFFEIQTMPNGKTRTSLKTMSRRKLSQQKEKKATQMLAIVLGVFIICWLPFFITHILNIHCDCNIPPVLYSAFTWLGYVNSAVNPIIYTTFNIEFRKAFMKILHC
Chain of Human recombinant dopamine D2 receptor (P14416 whole entry): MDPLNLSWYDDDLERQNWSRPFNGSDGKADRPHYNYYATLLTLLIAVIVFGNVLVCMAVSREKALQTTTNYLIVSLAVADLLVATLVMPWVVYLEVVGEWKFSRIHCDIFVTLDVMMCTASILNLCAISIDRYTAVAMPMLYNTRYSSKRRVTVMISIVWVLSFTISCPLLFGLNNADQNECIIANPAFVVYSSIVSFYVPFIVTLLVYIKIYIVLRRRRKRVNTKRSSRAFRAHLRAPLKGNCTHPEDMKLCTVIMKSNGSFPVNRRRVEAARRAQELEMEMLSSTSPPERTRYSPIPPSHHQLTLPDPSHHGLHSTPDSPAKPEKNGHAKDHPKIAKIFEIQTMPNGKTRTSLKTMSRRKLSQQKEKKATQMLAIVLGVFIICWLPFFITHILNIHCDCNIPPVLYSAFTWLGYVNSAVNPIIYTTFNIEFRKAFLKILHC

Row | SMILES | Ki [1] | melting point | Serotonin uptake inhibitory ratio (%) (300 nM) [2] | Ki [3] | quantity of cyclic AMP suppressed to, as the maximum activity [4]
1 | CNc1cc(C)c(OCCCN2CCN(c3cccc4sccc34)CC2)c(OC)c1.Cl [Example 11, N-methyl-4-[3-(4-benzo[b]thiophen-4-yl-piperazin-1-yl)propoxy]-3-methoxy-5-methylaniline hydrochloride] | 0.2 nM | 239.5 to 244 °C (dec.) | 95.2% | 4.4 nM | –
2 | COc1cc(N(C)C)cc(C)c1OCCCN1CCN(c2cccc3sccc23)CC1.Cl [Example 15, 4-[3-(4-benzo[b]thiophen-4-yl-piperazin-1-yl)propoxy]-N,N-dimethyl-3-methoxy-5-methylaniline hydrochloride] | 0.4 nM | 234.5 to 240.5 °C (dec.) | 95.3% | 5.9 nM | –
3 | COc1cc(NC(=O)CNC(=O)OC(C)(C)C)cc(C)c1OCCCN1CCN(c2cccc3sccc23)CC1 [Example 1059] | 0.4 nM | 140.5 to 142.5 °C | 97.2% | 3.8 nM | –
4 | COc1cc(NC(=O)CNC(C)=O)cc(C)c1OCCCN1CCN(c2cccc3sccc23)CC1 [Example 1061] | 0.1 nM | 167.5 to 170.5 °C | 97.5% | 1.2 nM | –
5 | COC(=O)N1CCN(c2cc(CO)c(OCCCN3CCN(c4cccc5sccc45)CC3)c(OC)c2)CC1 [Example 1087] | 0.3 nM | 128 to 130 °C | 97.1% | 2.6 nM | –
6 | COc1cc(N2CCCCC2)cc(C)c1OCCCN1CCN(c2cccc3sccc23)CC1 [Example 1089] | 1 nM | – | 85.0% | 13.9 nM | –
7 | CC(=O)Nc1cc(OCCCN2CCN(c3cccc4sccc34)CC2)n(C)n1 [Example 1106] | 1 nM | – | 69.9% | 7.1 nM | –
8 | CN(C)C(=O)N1CCC(OCCCN2CCN(c3cccc4sccc34)CC2)CC1 [Example 1110] | 1.2 nM | – | 38.5% | 4.9 nM | –
9 | CN(C)C(=O)c1csc(OCCCN2CCN(c3cccc4sccc34)CC2)n1 [Example 1113] | 0.7 nM | – | 59.3% | 5 nM | –
10 | CN(C)c1cc(OCCCCN2CCN(c3cccc4sccc34)CC2)n(C)n1 [Example 1138] | 1.4 nM | – | 67.2% | 19.7 nM | –
11 | NCCc1ccc(O)c(O)c1 [dopamine] | – | – | – | – | about 10%
